Results on one compound are retold here after patent US20110312934A1, “2-ALKYL-6-CYCLOAMINO-3-(PYRIDIN-4-YL)IMIDAZO[1,2-B]-PYRIDAZINE DERIVATIVES, PREPARATION THEREOF, AND THERAPEUTIC APPLICATION THEREOF” (SANOFI-AVENTIS, priority 2008, published 2011).

Data set [1] relates to Mper1-luc Rat-1 (P2C4) fibroblasts. The data set can be described thus: Circadian cell assay (mPer1 luciferase reporter, period prolongation). Type of data set: cell-based. Particulars: effective concentration that induced a 1-hour prolongation of the circadian period, interpolated from hyperbolic curve. As to the method: Mper1-luc Rat-1 (P2C4) fibroblast cultures were prepared by dividing the cultures every 3-4 days (approximately 10-20% of confluence) on 150 cm^2 degassed polystyrene tissue culture flasks (Falcon® #35-5001) and maintained in growth medium [EMEM (Cellgro #10-0,0-CV); 10% foetal bovine serum (FBS; Gibco #16000-044); and 50 I.U./ml of penicillin-streptomycin (Cellgro #30-001-CI)] at 37° C. and under 5% CO2.
Cells obtained from Rat-1 fibroblast cultures at 30-50% of confluence as described above were co-transfected with vectors containing the selection marker for resistance to zeocin for a stable transfection and a luciferase reporter gene controlled by the mPer-1 promoter. After 24 to 48 hours, the cultures were divided on 96-well plates and maintained in growth medium supplemented with 50-100 μg/ml of zeocin (Invitrogen® #45-0430) for 10-14 days. The zeocin-resistant stable transfectants were evaluated for the expression of the reporter by adding 100 μM luciferin (Promega® #E1603®) to the growth medium and by assaying the luciferase activity on a TopCount® scintillation counter (Packard Model #C384V00). The Rat-1 cell clones expressing both zeocin resistance and lucerifase activity controlled by mPer1 were serum-shock synchronized with 50% horse serum [HS (Gibco® #16050-122)] and the activity of the circadian reporter was evaluated. The P2C4 clone of Mper1-luc Rat-1 fibroblasts was selected to test the compound.
Mper1-luc Rat-1 (P2C4) fibroblasts at 40-50% of confluence, obtained according to the protocol described above, were plated out onto 96-well opaque tissue culture plates (Perkin Elmer® #6005680). The cultures are maintained in growth medium supplemented with 100 μg/ml of zeocin (Invitrogen #45-0430) until they reach 100% of confluence (48-72 h). The cultures were then synchronized with 100 μl of synchronization medium [EMEM (Cellgro #10-0,0-CV); 100 I.U./ml of penicillin-streptomycin (Cellgro #30-001-C1); 50% HS (Gibco #16050-122)] for 2 hours at 37° C. and under 5% CO2. After synchronization, the cultures were rinsed with 100 μl of EMEM (Cellgro #10-010-CV) for 10 minutes at ambient temperature. After rinsing, the medium was replaced with 300 μl of CO2 independent medium [CO2I (Gibco #18045-088); 2 mM L-glutamine (Cellgro #25-005-C1); 100 U.I./ml of penicillin-streptomycin (Cellgro #30-001-C1); 100 μM luciferin (Promega #E 1603)]. […]
The two methods produced a virtually identical period estimation on a range of circadian periods. […] The data were analysed by adjusting a hyperbolic curve to the data expressed as change of period (y-axis) as a function of the concentration of the test compound (x-axis) in the XLfit™ software and the CE Delta (t+1 h) was interpolated from this curve.

One may read the melting point as the temperature of the solid-liquid transition. Turning to `Cc1nc2ccc(N3CCNCC3)nn2c1-c1ccncc1` [Compound 1, 2-Methyl-6-piperazin-1-yl-3-pyridin-4-yl-imidazo[1,2-b]pyridazine], the melting point lay within 166 to 168 °C. The “CE Delta (t + 1 h)” value in data set [1] stood at 20 nM.
